Consider one compound from paper PMC6973011, “Stafia‐1: a STAT5a‐Selective Inhibitor Developed via Docking‐Based Screening of in Silico O‐Phosphorylated Fragments” (Chemistry (Weinheim an Der Bergstrasse, Germany), 2019).

Positions count from the first letter of the chain named.

Holding throughout (assay type): binding
What all share (conditions): FP assay

For assay [1], the target named is T1, STAT5b Arg566Trp/Met644Lys (Homo sapiens, UniProt P51692, M644K/R566W).
T1 construct: made in house
T1 sequence (P51692 1-787 R566W/M644K): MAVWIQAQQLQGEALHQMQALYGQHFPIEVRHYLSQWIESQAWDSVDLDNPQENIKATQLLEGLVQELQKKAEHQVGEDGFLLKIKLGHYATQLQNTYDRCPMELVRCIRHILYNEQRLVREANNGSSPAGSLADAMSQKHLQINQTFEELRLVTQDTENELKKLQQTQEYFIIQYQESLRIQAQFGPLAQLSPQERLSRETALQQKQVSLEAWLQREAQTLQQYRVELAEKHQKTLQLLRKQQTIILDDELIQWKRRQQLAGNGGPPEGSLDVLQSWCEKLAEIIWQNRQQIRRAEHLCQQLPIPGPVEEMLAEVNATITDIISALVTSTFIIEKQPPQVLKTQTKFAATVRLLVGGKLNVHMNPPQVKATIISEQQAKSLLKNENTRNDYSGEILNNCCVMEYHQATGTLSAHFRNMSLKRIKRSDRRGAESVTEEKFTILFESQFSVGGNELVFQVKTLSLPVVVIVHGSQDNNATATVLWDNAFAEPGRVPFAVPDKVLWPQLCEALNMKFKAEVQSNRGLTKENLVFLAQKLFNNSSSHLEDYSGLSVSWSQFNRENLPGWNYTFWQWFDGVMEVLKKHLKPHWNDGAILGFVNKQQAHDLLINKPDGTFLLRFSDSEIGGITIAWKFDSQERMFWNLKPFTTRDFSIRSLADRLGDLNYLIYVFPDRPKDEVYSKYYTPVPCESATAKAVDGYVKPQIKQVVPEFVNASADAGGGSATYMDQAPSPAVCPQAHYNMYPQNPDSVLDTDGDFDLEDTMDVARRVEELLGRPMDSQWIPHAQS
In words: Fluorescence polarization assay, double mutant STAT5b Arg566Trp/Met644Lys.

Assay [2] concerns the target T2, STAT5a Trp566Arg/Lys644Met (Homo sapiens, UniProt P42229, K644M/W566R).
T2 construct: made in house
T2 sequence (P42229 1-794 W566R/K644M): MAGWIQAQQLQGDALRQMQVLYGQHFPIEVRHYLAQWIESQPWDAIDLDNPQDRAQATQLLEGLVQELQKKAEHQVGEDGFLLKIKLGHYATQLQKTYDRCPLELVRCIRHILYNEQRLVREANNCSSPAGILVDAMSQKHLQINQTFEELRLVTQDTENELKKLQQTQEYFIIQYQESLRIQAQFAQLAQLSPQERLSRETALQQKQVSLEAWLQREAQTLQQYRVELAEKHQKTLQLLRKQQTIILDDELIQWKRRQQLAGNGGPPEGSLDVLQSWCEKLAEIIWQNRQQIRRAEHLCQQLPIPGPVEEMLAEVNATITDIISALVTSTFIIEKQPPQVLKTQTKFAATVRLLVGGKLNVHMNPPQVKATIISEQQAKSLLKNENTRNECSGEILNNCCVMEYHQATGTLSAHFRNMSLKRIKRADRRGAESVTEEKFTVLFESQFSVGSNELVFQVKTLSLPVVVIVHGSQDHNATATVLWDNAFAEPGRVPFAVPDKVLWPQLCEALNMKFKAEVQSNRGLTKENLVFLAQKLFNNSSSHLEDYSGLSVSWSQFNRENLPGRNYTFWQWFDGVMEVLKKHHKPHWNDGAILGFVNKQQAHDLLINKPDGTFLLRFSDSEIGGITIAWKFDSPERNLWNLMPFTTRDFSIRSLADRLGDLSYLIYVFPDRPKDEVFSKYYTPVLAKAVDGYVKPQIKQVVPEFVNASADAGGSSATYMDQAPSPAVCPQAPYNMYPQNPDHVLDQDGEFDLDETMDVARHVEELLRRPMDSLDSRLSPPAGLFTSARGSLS
In words: Fluorescence polarization assay, double mutant STAT5a Trp566Arg/Lys644Met.

In assay [3] the target is T3, STAT5b Arg566Trp/Gln636Pro/Met639Asn/Phe640Leu/Met644Lys/Asn664Ser/Tyr679Phe (STAT5b‐7M) (Homo sapiens, UniProt P51692, F640L/M639N/M644K/N664S/Q636P/R566W/Y679F).
T3 construct: made in house
T3 sequence (P51692 1-787 R566W/Q636P/M639N/F640L/M644K/N664S/Y679F): T1 sequence (P51692 1-787 R566W/M644K) with Q636P, M639N, F640L, N664S, Y679F
In words: Fluorescence polarization assay, mutant STAT5b-7M.

In assay [1], `COc1cc(-c2cc(OP(=O)(O)O)cc(-c3cc(OC)c(OC)c(OC)c3)c2)cc(OC)c1OC` [Compound 20] registered an IC50 of 128 ± 8 µM and a Ki of 63.1 ± 4.2 µM. In assay [2], this compound returned an inhibition at 200 µM of 44 ± 4%. In addition, in assay [3], it took 42.6 ± 8.8 µM to reach half-maximal inhibition (IC50) and the affinity, expressed as Ki, was 21.1 ± 4.4 µM.
